From US11427553B2, “Dihydrooxadiazinones” (Bayer Aktiengesellschaft, priority 2017, dated 2022) come the findings set out here.

pIC50: −log10 of the molar value.

For one experiment, the system named is HeLa cells. Briefly: Assay 1 cell proliferation measurement (CTG, 72 h), HeLa. In kind it is cell-based, human. Particulars: Homo sapiens, HeLa; Assay 1, 72 h, Cell Titer Glo; read-out: HeLa IC50 [nM] (Cervical cancer). The gist of the method: (§1)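 Growth inhibition relative to a 0 h baseline plate and 0.3% DMSO control, with IC50 fitted by 4-parameter curve. Compound exposure lasted 72 h at 37 °C across a 2.5-fold, 10-step series starting generally at 100 nM final.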
(ATP-based viability assays read luminescence as a measure of living cells.)

Another experiment concerns SK-MEL-3 cells. Briefly: Assay 1 cell proliferation measurement (CTG, 72 h), SK-MEL-3. In kind it is cell-based, human. Particulars: Homo sapiens, SK-MEL3; Assay 1, 72 h, Cell Titer Glo; read-out: SK-MEL-3 IC50 [nM] (melanoma). The gist of the method: as §1
A further experiment has as its target human full length PDE3A (Homo sapiens (Human), UniProt Q14432). Briefly: Assay 4 PDE3A enzyme inhibition (3H-cAMP SPA). It counts as biochemical. The settings on record: Sf9 cell extract. The procedure, abridged: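 Enzyme: Sf9 extract with overexpressed full-length PDE3A; substrate [8-3H]cAMP, 0.025 μCi/well; 60 min, room temperature, Tris/HCl pH 7.5 buffer with MgCl2, EDTA, BSA.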

The next experiment addresses human full length PDE3B (Homo sapiens (Human), UniProt Q13370). Briefly: Assay 5 PDE3B enzyme inhibition (3H-cAMP SPA). It counts as biochemical. Particulars: Sf9 cell extract. The gist of the method: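 Sf9 cell extract expressing human full-length PDE3B, diluted for linear kinetics (<70% substrate use), in 50 mM Tris/HCl pH 7.5, 8.3 mM MgCl2, 1.7 mM EDTA. [8-3H]cAMP substrate, 60 min at room temperature; stopped with yttrium SPA beads, scintillation counting. IC50 from sigmoidal activity vs log concentration curves.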

human full length PDE3A, sequence (Q14432 whole entry): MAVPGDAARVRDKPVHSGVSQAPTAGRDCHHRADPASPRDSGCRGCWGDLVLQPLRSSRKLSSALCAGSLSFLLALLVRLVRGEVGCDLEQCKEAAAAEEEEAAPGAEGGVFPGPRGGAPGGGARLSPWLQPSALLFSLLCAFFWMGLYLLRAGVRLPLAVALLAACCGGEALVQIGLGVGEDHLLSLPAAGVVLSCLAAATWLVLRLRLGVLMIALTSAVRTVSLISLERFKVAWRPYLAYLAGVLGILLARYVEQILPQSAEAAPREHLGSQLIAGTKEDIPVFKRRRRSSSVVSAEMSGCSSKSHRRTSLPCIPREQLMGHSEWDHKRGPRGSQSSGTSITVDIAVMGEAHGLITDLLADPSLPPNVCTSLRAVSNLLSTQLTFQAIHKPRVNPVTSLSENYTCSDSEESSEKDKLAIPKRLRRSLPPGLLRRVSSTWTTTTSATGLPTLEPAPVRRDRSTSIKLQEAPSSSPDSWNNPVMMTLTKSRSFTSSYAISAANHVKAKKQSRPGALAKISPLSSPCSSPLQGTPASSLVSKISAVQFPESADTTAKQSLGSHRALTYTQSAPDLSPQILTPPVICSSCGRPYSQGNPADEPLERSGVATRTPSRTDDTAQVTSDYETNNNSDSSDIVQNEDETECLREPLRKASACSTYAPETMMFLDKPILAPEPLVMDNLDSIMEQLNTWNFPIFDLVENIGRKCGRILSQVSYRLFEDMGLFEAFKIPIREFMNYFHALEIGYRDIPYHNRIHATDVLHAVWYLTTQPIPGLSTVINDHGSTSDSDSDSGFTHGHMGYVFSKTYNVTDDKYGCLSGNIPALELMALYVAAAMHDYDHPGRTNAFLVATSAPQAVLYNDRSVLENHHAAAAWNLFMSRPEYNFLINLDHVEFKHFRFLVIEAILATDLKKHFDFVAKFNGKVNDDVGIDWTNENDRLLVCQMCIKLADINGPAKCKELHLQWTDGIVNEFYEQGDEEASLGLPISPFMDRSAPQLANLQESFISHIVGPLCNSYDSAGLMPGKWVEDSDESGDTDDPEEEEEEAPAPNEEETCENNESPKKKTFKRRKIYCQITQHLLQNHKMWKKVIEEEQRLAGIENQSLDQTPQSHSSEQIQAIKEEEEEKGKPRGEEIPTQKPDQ
human full length PDE3B, sequence (Q13370 whole entry): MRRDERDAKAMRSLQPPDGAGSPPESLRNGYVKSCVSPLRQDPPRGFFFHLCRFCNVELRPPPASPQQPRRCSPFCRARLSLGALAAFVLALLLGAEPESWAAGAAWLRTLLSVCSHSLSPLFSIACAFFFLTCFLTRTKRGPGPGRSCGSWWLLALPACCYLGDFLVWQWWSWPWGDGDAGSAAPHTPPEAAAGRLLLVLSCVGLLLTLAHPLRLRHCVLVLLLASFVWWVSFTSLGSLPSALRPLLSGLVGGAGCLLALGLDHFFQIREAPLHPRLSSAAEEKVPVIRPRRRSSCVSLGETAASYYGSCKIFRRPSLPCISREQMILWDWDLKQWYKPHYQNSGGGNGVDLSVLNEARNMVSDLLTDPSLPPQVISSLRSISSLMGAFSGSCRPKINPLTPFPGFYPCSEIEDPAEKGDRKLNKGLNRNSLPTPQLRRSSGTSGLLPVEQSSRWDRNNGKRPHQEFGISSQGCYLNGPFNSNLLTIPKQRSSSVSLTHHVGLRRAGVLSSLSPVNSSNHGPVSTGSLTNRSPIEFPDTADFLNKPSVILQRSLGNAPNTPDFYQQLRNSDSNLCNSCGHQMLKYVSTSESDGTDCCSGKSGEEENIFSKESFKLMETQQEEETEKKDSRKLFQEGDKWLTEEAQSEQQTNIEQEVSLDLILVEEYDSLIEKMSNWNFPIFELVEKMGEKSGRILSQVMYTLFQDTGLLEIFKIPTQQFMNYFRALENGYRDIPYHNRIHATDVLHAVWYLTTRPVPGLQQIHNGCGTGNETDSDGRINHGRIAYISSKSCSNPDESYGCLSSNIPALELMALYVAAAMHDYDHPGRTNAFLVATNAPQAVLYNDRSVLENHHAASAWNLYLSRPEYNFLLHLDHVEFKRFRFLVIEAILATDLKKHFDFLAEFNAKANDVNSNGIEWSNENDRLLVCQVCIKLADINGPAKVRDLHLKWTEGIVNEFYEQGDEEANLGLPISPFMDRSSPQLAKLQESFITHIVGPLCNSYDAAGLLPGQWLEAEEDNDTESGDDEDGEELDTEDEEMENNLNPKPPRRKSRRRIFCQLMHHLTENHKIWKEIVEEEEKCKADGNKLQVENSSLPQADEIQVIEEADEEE

On to `Cc1cc(C2=NNC(=O)OC2)ccc1-c1cn[nH]c1` [Example 11, 5-[3-Methyl-4-(1H-pyrazol-4-yl)phenyl]-3,6-dihydro-2H-1,3,4-oxadiazin-2-one], for which the concentration for half-maximal inhibition (IC50) – broadly, the point on the concentration scale where inhibition reaches its midpoint – in the experiment with HeLa cells is 19 nM; with SK-MEL-3 cells, 49 nM. Moreover, the pIC50 – broadly, the IC50 on a negative log10 scale, so that one unit is a factor of ten – is 7.08 on human full length PDE3A and 7.19 against human full length PDE3B.

Consider `Cc1cnccc1-c1ccc(C2=NNC(=O)O[C@H]2C)cc1C(F)(F)F` [Example 183, (6S)-6-Methyl-5-[4-(3-methylpyridin-4-yl)-3-(trifluoromethyl)phenyl]-3,6-dihydro-2H-1,3,4-oxadiazin-2-one], for which the IC50 is 15 nM with HeLa cells and 22 nM in the experiment with SK-MEL-3 cells. Further, the pIC50 is 6.70 against human full length PDE3A and 6.77 against human full length PDE3B.

As for `CC1(F)CCN(c2ccc(C3=NNC(=O)OC3)cc2F)CC1` [Example 5, 5-[3-Fluoro-4-(4-fluoro-4-methylpiperidin-1-yl)phenyl]-3,6-dihydro-2H-1,3,4-oxadiazin-2-one], the IC50 in the experiment on HeLa cells turned out to be 3 nM; with SK-MEL-3 cells it was 5 nM. Further, the pIC50 on human full length PDE3A was 6.86; at human full length PDE3B, 7.01.

`O=C1NN=C(c2ccc(N3CCOCC3)c(C(F)(F)F)c2)CO1` [Example 65, 5-[4-(Morpholin-4-yl)-3-(trifluoromethyl)phenyl]-3,6-dihydro-2H-1,3,4-oxadiazin-2-one]: the IC50 stood at 2 nM in the experiment on HeLa cells and 3 nM in the experiment on SK-MEL-3 cells. The pIC50 against human full length PDE3A was 7.60; against human full length PDE3B it was 7.52.

With `O=C1NN=C(c2ccc(-c3ccncc3)c(F)c2)CO1` [Example 93, 5-[3-Fluoro-4-(pyridin-4-yl)phenyl]-3,6-dihydro-2H-1,3,4-oxadiazin-2-one], the IC50 in the experiment on HeLa cells was determined as 7 nM; in the experiment with SK-MEL-3 cells, 13 nM. The pIC50 is 7.30 on human full length PDE3A and 7.00 at human full length PDE3B.

As to `Cc1ccc(-c2ccc(C3=NNC(=O)OC3)cc2F)cc1N` [Example 103, 5-(3′-Amino-2-fluoro-4′-methyl[1,1′-biphenyl]-4-yl)-3,6-dihydro-2H-1,3,4-oxadiazin-2-one], the values for the IC50 in the experiment with HeLa cells and in the experiment on SK-MEL-3 cells were 3 nM and 6 nM, respectively. In addition, the pIC50 against human full length PDE3A is 7.18; against human full length PDE3B, 6.85.

Take `Cc1cc(C2=NNC(=O)OC2)ccc1Cl` [Intermediate 76, 5-(4-Chloro-3-methylphenyl)-3,6-dihydro-2H-1,3,4-oxadiazin-2-one]: the IC50 with HeLa cells stood at 40 nM; in the experiment on SK-MEL-3 cells, 75 nM. Further, the results for the pIC50 against human full length PDE3A and against human full length PDE3B were 6.43 and 6.89, respectively.

`O=C1NN=C(c2ccc(-c3cccc(F)c3F)c(C(F)(F)F)c2)CO1` [Example 64, 5-[2′,3′-Difluoro-2-(trifluoromethyl)biphenyl-4-yl]-3,6-dihydro-2H-1,3,4-oxadiazin-2-one]: the results for the IC50 in the experiment on HeLa cells and in the experiment on SK-MEL-3 cells were 17 nM and 41 nM, respectively. The values for the pIC50 at human full length PDE3A and against human full length PDE3B were 6.66 and 6.71, respectively.

`Cc1cc(C2=NNC(=O)OC2)ccc1C1=CCOCC1` [Example 10, 5-[4-(3,6-Dihydro-2H-pyran-4-yl)-3-methylphenyl]-3,6-dihydro-2H-1,3,4-oxadiazin-2-one]: the half-maximal inhibitory concentration (IC50) was 15 nM in the experiment with HeLa cells and 43 nM in the experiment with SK-MEL-3 cells. The pIC50 against human full length PDE3A was 6.66; at human full length PDE3B, 6.64.

`CN(c1ccc(C2=NNC(=O)OC2)cc1C(F)(F)F)C1CCCC1` [Example 132, 5-{4-[Cyclopentyl(methyl)amino]-3-(trifluoromethyl)phenyl}-3,6-dihydro-2H-1,3,4-oxadiazin-2-one]: the IC50 in the experiment on HeLa cells amounted to 16 nM; in the experiment on SK-MEL-3 cells, 38 nM. The pIC50 is 6.59 against human full length PDE3A and 6.35 at human full length PDE3B.

`O=C1NN=C(c2ccc(-c3ccc(C(F)(F)F)nc3)c(C(F)(F)F)c2)CO1` [Example 36, 5-{3-(Trifluoromethyl)-4-[6-(trifluoromethyl)pyridin-3-yl]phenyl}-3,6-dihydro-2H-1,3,4-oxadiazin-2-one]: the IC50 with HeLa cells worked out at 23 nM; in the experiment on SK-MEL-3 cells, 39 nM. The pIC50 is 6.55 against human full length PDE3A and 6.49 against human full length PDE3B.

With `O=C1NN=C(c2ccc(C3=CCOC3)c(C(F)(F)F)c2)CO1` [Example 149, 5-[4-(2,5-Dihydrofuran-3-yl)-3-(trifluoromethyl)phenyl]-3,6-dihydro-2H-1,3,4-oxadiazin-2-one], the half-maximal inhibitory concentration (IC50) with HeLa cells was 2 nM; in the experiment with SK-MEL-3 cells, 4 nM. Further, the pIC50 against human full length PDE3A is 6.79; on human full length PDE3B, 6.88.

Turning to `NC1CCCC(Nc2ccc(C3=NNC(=O)OC3)cc2C(F)(F)F)C1` (mixture of isomers) [Example 322, 5-[4-{[3-aminocyclohexyl]amino}-3-(trifluoromethyl)phenyl]-3,6-dihydro-2H-1,3,4-oxadiazin-2-one (mixture of stereoisomers)], the IC50 in the experiment on HeLa cells and with SK-MEL-3 cells was > 100 nM throughout. The values for the pIC50 at human full length PDE3A and on human full length PDE3B were 6.24 and 6.11, respectively.

As for `Cc1cc(C2=NNC(=O)OC2)ccc1-c1ccnn1C` [Example 29, 5-[3-Methyl-4-(1-methyl-1H-pyrazol-5-yl)phenyl]-3,6-dihydro-2H-1,3,4-oxadiazin-2-one], the half-maximal inhibitory concentration (IC50) was 46 nM in the experiment on HeLa cells and > 100 nM in the experiment with SK-MEL-3 cells. The pIC50 against human full length PDE3A was 6.52; against human full length PDE3B it was 6.80.

Take `CC1CN(c2ccc(C3=NNC(=O)OC3)cc2F)CC(C)O1` (stereo not drawn) [Example 24, 5-{4-[2,6-Dimethylmorpholin-4-yl]-3-fluorophenyl}-3,6-dihydro-2H-1,3,4-oxadiazin-2-one]: the IC50 with HeLa cells is 55 nM; with SK-MEL-3 cells, > 100 nM. The pIC50 was 6.74 against human full length PDE3A and 6.96 against human full length PDE3B.

Regarding `Nc1ccc(-c2ccc(C3=NNC(=O)OC3)cc2F)cc1` [Example 80, 5-(4′-Amino-2-fluorobiphenyl-4-yl)-3,6-dihydro-2H-1,3,4-oxadiazin-2-one], the IC50 in the experiment on HeLa cells worked out at 2 nM; with SK-MEL-3 cells, 6 nM. Further, the values for the pIC50 on human full length PDE3A and on human full length PDE3B were 7.47 and 7.06, respectively.

In the case of `O=C1NN=C(c2ccc(F)c(C(F)(F)F)c2)CO1` [Intermediate 66, 5-[4-Fluoro-3-(trifluoromethyl)phenyl]-3,6-dihydro-2H-1,3,4-oxadiazin-2-one], the IC50 in the experiment on HeLa cells was 56 nM; in the experiment with SK-MEL-3 cells, > 100 nM. For the same compound, the pIC50 against human full length PDE3A and on human full length PDE3B was < 6.00 throughout.

For `O=C1NN=C(c2ccc(-c3cnsc3)c(C(F)(F)F)c2)CO1` [Example 49, 5-[4-(1,2-Thiazol-4-yl)-3-(trifluoromethyl)phenyl]-3,6-dihydro-2H-1,3,4-oxadiazin-2-one], the IC50 in the experiment on HeLa cells amounted to 6 nM; in the experiment with SK-MEL-3 cells, 13 nM. Moreover, the pIC50 on human full length PDE3A is 6.64; at human full length PDE3B it was 6.72.

Regarding `O=C1NN=C(c2ccc(C3=CC4CCC3C4)c(C(F)(F)F)c2)CO1` (racemic) [Example 154, (rac)-5-[4-(Bicyclo[2.2.1]hept-2-en-2-yl)-3-(trifluoromethyl)phenyl]-3,6-dihydro-2H-1,3,4-oxadiazin-2-one], the IC50 was determined as 2 nM with HeLa cells and 4 nM with SK-MEL-3 cells. Further, the pIC50 against human full length PDE3A was 7.15; against human full length PDE3B it was 6.92.

On to `O=C1NN=C(c2ccc(NC3CCCC3)c(C(F)(F)F)c2)CO1` [Example 136, 5-[4-(Cyclopentylamino)-3-(trifluoromethyl)phenyl]-3,6-dihydro-2H-1,3,4-oxadiazin-2-one], for which the IC50 in the experiment on HeLa cells was 0.3 nM; in the experiment on SK-MEL-3 cells, 1 nM. Moreover, the pIC50 is 7.49 against human full length PDE3A and 7.57 against human full length PDE3B.

With `C[C@@H]1OC(=O)NN=C1c1ccc(-c2ccc3[nH]ccc3c2)c(C(F)(F)F)c1` [Example 173, (6S)-5-[4-(1H-Indol-5-yl)-3-(trifluoromethyl)phenyl]-6-methyl-3,6-dihydro-2H-1,3,4-oxadiazin-2-one], the IC50 with HeLa cells was determined as 15 nM; in the experiment on SK-MEL-3 cells it was 27 nM. Besides, the negative logarithm of the IC50 (pIC50) at human full length PDE3A and on human full length PDE3B was 7.24 each time.

For the compound `Cc1ccncc1-c1ccc(C2=NNC(=O)OC2)cc1F` [Example 118, 5-[3-Fluoro-4-(4-methylpyridin-3-yl)phenyl]-3,6-dihydro-2H-1,3,4-oxadiazin-2-one], the IC50 with HeLa cells was 3 nM; with SK-MEL-3 cells it was 6 nM. The pIC50 against human full length PDE3A was 7.22; against human full length PDE3B, 7.19.

For `O=C1NN=C(c2ccc(-c3cc(F)cc(F)c3)c(F)c2)CO1` [Example 110, 5-(2,3′,5′-Trifluoro[1,1′-biphenyl]-4-yl)-3,6-dihydro-2H-1,3,4-oxadiazin-2-one], the IC50 worked out at 8 nM with HeLa cells and 14 nM with SK-MEL-3 cells. Moreover, the figures for the pIC50 on human full length PDE3A and against human full length PDE3B were 7.00 and 6.85, respectively.

As for `O=C1NN=C(c2ccc(N3CC[C@@H](O)C3)c(C(F)(F)F)c2)CO1` [Example 257, 5-{4-[(3R)-3-Hydroxypyrrolidin-1-yl]-3-(trifluoromethyl)phenyl}-3,6-dihydro-2H-1,3,4-oxadiazin-2-one], the IC50 in the experiment on HeLa cells was 6 nM; with SK-MEL-3 cells, 9 nM. The figures for the pIC50 at human full length PDE3A and against human full length PDE3B were 7.12 and 6.92, respectively.
